For assay [1], the target named is T1, human ALK2 R206H (Homo sapiens, UniProt Q04771, R206H).
T1 construct: expressed in transfected cells; host or cells: HEK293 (ATCC CRL1573), lentivirus transduction, blasticidin selection
T1 sequence (Q04771 21-509 R206H): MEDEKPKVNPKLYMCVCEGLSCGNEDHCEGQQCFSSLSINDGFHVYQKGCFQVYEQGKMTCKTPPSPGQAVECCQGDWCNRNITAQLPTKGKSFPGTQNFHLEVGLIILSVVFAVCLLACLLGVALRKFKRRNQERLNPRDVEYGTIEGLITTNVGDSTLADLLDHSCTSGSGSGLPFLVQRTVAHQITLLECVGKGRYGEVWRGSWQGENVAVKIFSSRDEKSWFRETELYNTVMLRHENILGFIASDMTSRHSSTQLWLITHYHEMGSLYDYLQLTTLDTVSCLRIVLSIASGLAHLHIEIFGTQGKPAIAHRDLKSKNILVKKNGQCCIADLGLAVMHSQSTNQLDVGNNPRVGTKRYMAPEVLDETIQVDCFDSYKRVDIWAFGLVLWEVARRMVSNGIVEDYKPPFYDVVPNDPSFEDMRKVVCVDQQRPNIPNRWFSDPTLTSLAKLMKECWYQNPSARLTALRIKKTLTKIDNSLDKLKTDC
In words: Cell-based ALK2-R206H cell activity assay (Smad1-Ser463/Ser465 phosphorylation by AlphaLISA in HEK293-ALK2-R206H cells). A digest of the protocol:
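Stable HEK293 cells expressing C-terminally FLAG-tagged human ALK2 R206H (lentiviral, blasticidin-selected) were treated with compounds in 10-point, 3-fold dilutions from 10 μM or 1 μM top, in duplicate. Smad1 Ser463/Ser465 phosphorylation was read by AlphaLISA.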

In assay [2] the target is T2, ALK2 R206H (GST-tagged mutant ALK2) (Homo sapiens, UniProt Q04771, R206H).
T2 construct: purchased Carna Bioscience or ThermoFisher 09-148 or PV6232
T2 sequence (Q04771 21-509 R206H): T1 sequence (Q04771 21-509 R206H)
In words: ALK binding assay (LANTHASCREEN TR-FRET competitive binding, displacement of Kinase Tracer 178). Background: TR-FRET usually uses a lanthanide donor and a delayed reading to cut background.

Where [3] appears, read: read-out: Cell Line (Cell Assay IC50).
Where [4] appears, read: ALK2 R206H, LANTHASCREEN TR-FRET competitive binding, read-out: Binding Assay (IC50).

Read-outs that look alike come from different tables or passages of the source.

A word on the IC50: it is the concentration that gives 50% inhibition. As to `COC1(c2ccc(-c3cc4c(N5CCN(C(=O)NC(C)C)CC5)ccnn4c3)nc2)CCN(C(C)CF)CC1` (centres unmarked) [Compound 850], the results for the half-inhibitory concentration (IC50) in assay [1] (setting [3]) and in assay [2] (setting [4]) were less than 100 nM and less than 10 nM, respectively.
The matching figures for `CC(C)N1CCC(c2ccc(-c3cc4c(N5CCN(C(=O)Nc6ccccc6F)CC5)ccnn4c3)cc2)CC1` [Compound 851]: 100 to 500 nM and less than 10 nM.
In the case of `COC1(c2ccc(-c3cc4c(N5CCN(C(=O)NC(C)C)CC5)ccnn4c3)c(C#N)c2)CCN(C(C)C)CC1` [Compound 852], the half-inhibitory concentration (IC50) in assay [1] (setting [3]) is less than 100 nM; in assay [2] (setting [4]), less than 10 nM.
On to `CC(=O)N1CC(OC(=O)N2CCN(c3ccnn4cc(-c5ccc([C@@H]6CCCN(C(C)C)C6)cc5)cc34)CC2)C1` [Compound 853], for which the values for the IC50 in assay [1] (setting [3]) and in assay [2] (setting [4]) were 100 to 500 nM and less than 10 nM, respectively.
For `CCOC1(c2ccc(-c3cc4c(N5CCN(C(=O)OCCC#N)CC5)ccnn4c3)nc2)CCN(C(C)C)CC1` [Compound 854] the same measures were less than 100 nM and less than 10 nM.
With `CCOC1(c2ccc(-c3cc4c(N5CCN(C(=O)OC6COC6)CC5)ccnn4c3)nc2)CCN(C2CC2)CC1` [Compound 855], the values for the IC50 in assay [1] (setting [3]) and in assay [2] (setting [4]) were less than 100 nM and less than 10 nM, respectively.
For `CCOC1(c2ccc(-c3cc4c(N5CCN(C(=O)NC(C)C)CC5)ccnn4c3)cc2)CCN(C2COC2)CC1` [Compound 856] the same measures were less than 100 nM and less than 10 nM.
The matching figures for `CCOC1(c2ccc(-c3cc4c(N5CCN(C(=O)OC6COC6)CC5)ccnn4c3)cc2)CCN(C(C)C)CC1` [Compound 857]: less than 100 nM and less than 10 nM.
For `CCOC1(c2ccc(-c3cc4c(N5CCN(C(=O)NC(C)C)CC5)ccnn4c3)nc2)CCN(C2COC2)CC1` [Compound 858] the same measures were less than 100 nM and less than 10 nM.
Regarding `CC(C)N1CCC(COC(F)F)(c2ccc(-c3cc4c(N5CCN(C(=O)C6CC6)CC5)ccnn4c3)cc2)CC1` [Compound 859], the figures for the IC50 in assay [1] (setting [3]) and in assay [2] (setting [4]) were less than 100 nM and less than 10 nM, respectively.
In the case of `CCOC1(c2ccc(-c3cc4c(N5CCN(C(=O)NC(C)C)CC5)ccnn4c3)nc2)CCN(C(C)CF)CC1` (centres unmarked) [Compound 860], the IC50 in assay [1] (setting [3]) is less than 100 nM; in assay [2] (setting [4]), less than 10 nM.
On to `CCOC1(c2ccc(-c3cc4c(N5CCN(C(=O)NC(C)C)CC5)ccnn4c3)nc2)CCN(C[C@H](C)F)CC1` [Compound 861], for which the figures for the half-maximal inhibitory concentration (IC50) in assay [1] (setting [3]) and in assay [2] (setting [4]) were less than 100 nM and less than 10 nM, respectively.
Consider `COC1(c2ccc(-c3cc4c(N5CCN(C(=O)OC6COC6)CC5)ccnn4c3)nc2)CCN(C(C)CF)CC1` (centres unmarked) [Compound 863], for which the 50% inhibitory concentration (IC50) in assay [1] (setting [3]) was less than 100 nM; in assay [2] (setting [4]) it was less than 10 nM.
For `CCOC1(c2ccc(-c3cc4c(N5CCN(C(=O)O[C@H](C)CF)CC5)ccnn4c3)nc2)CCN(C(C)C)CC1` [Compound 864] the same measures were less than 100 nM and less than 10 nM.
The matching figures for `CCOC1(c2ccc(-c3cc4c(N5CCN(C(=O)OC[C@H](C)F)CC5)ccnn4c3)nc2)CCN(C(C)C)CC1` [Compound 865]: less than 100 nM and less than 10 nM.
For `CCOC1(c2ccc(-c3cc4c(N5CCN(C(=O)OC[C@@H](C)F)CC5)ccnn4c3)nc2)CCN(C(C)C)CC1` [Compound 867] the same measures were less than 100 nM and less than 10 nM.
For the compound `CC(C)NC(=O)N1CCN(c2ccnn3cc(-c4ccc([C@H]5CN(C(C)C)CC[C@@H]5OC(F)F)cc4)cc23)CC1` [Compound 868], the concentration for half-maximal inhibition (IC50) in assay [1] (setting [3]) was less than 100 nM; in assay [2] (setting [4]) it was less than 10 nM.
For `CC(C)NC(=O)N1CCN(c2ccnn3cc(-c4ccc([C@@H]5CN(C(C)C)CC[C@H]5OC(F)F)cc4)cc23)CC1` [Compound 869] the same measures were less than 100 nM and less than 10 nM.
Regarding `COC1(c2ccc(-c3cc4c(N5CCN(C(=O)[C@H]6C[C@H](C#N)C6)CC5)ccnn4c3)nc2)CCN(C2COC2)CC1` [Compound 870], the IC50 is less than 100 nM in assay [1] (setting [3]) and less than 10 nM in assay [2] (setting [4]).
In the case of `CCOC1(c2ccc(-c3cc4c(N5CCN(C(=O)[C@H]6C[C@H](C#N)C6)CC5)ccnn4c3)nc2)CCN(C(C)C)CC1` [Compound 871], the figures for the IC50 in assay [1] (setting [3]) and in assay [2] (setting [4]) were less than 100 nM and less than 10 nM, respectively.
The matching figures for `CCOC1(c2ccc(-c3cc4c(N5CCN(C(=O)OCC(F)F)CC5)ccnn4c3)nc2)CCN(C(C)C)CC1` [Compound 872]: less than 100 nM and less than 10 nM.
Turning to `COC1(c2ccc(-c3cc4c(N5CCN(C(=O)OC6COC6)CC5)ccnn4c3)c(C#N)c2)CCN(C(C)C)CC1` [Compound 873], the IC50 was less than 100 nM in assay [1] (setting [3]) and less than 10 nM in assay [2] (setting [4]).
On to `COC(=O)C1(c2ccc(-c3cc4c(N5CCN(C(=O)OC6COC6)CC5)ccnn4c3)cc2)CCN(C(C)C)CC1` [Compound 874], for which the 50% inhibitory concentration (IC50) in assay [1] (Cell Line (Cell Assay IC50)) was 100 to 500 nM; in assay [2], less than 10 nM.
Consider `CCOC1(c2ccc(-c3cc4c(N5CCN(C(=O)OC6COC6)CC5)ccnn4c3)nc2)CCN(C2COC2)CC1` [Compound 875], for which the concentration for half-maximal inhibition (IC50) in assay [1] (setting [3]) was less than 100 nM; in assay [2] (setting [4]), less than 10 nM.
The matching figures for `CCOC1(c2ccc(-c3cc4c(N5CCN(C(=O)O[C@@H]6CCOC6)CC5)ccnn4c3)nc2)CCN(C(C)C)CC1` [Compound 876]: less than 100 nM and less than 10 nM.
With `CCOC1(c2ccc(-c3cc4c(N5CCN(C(=O)O[C@H]6CCOC6)CC5)ccnn4c3)nc2)CCN(C(C)C)CC1` [Compound 877], the figures for the IC50 in assay [1] (setting [3]) and in assay [2] (setting [4]) were less than 100 nM and less than 10 nM, respectively.
For `CCOC1(c2ccc(-c3cc4c(N5CCN(C(=O)OC6(C)COC6)CC5)ccnn4c3)nc2)CCN(C(C)C)CC1` [Compound 878] the same measures were less than 100 nM and less than 10 nM.
The matching figures for `CCOC1(c2ccc(-c3cc4c(N5CCN(C(=O)OC6COC6C)CC5)ccnn4c3)nc2)CCN(C(C)C)CC1` (centres unmarked) [Compound 879]: less than 100 nM and less than 10 nM.
For the compound `CCOC1(c2ccc(-c3cc4c(N5CCN(C(=O)OC6COC6)CC5)ccnn4c3)nc2)CCN(CC(C)F)CC1` (centres unmarked) [Compound 880], the IC50 in assay [1] (setting [3]) is less than 100 nM; in assay [2] (setting [4]), less than 10 nM.
Consider `CCOC1(c2ccc(-c3cc4c(N5CCN(C(=O)OC6COC6)CC5)ccnn4c3)nc2)CCN(C[C@H](C)F)CC1` [Compound 882], for which the values for the 50% inhibitory concentration (IC50) in assay [1] (setting [3]) and in assay [2] (setting [4]) were less than 100 nM and less than 10 nM, respectively.
For `COC1(c2ccc(-c3cc4c(N5CCN(C(=O)C6CC6)CC5)ccnn4c3)cc2)CCN([C@@H](C)COC(F)F)CC1` [Compound 883] the same measures were less than 100 nM and less than 10 nM.
For `COC1(c2ccc(-c3cc4c(N5CCN(C(=O)C6CC6)CC5)ccnn4c3)cc2)CCN([C@H](C)COC(F)F)CC1` [Compound 884] the same measures were less than 100 nM and less than 10 nM.
Consider `COC1(c2ccc(-c3cc4c(N5CCN(C(=O)C6CC6)CC5)ccnn4c3)nc2)CCN([C@H](C)COC(F)F)CC1` [Compound 885], for which the IC50 in assay [1] (setting [3]) is less than 100 nM; in assay [2] (setting [4]), less than 10 nM.
Consider `COC1(c2ccc(-c3cc4c(N5CCN(C(=O)C6CC6)CC5)ccnn4c3)nc2)CCN([C@@H](C)COC(F)F)CC1` [Compound 886], for which the IC50 in assay [1] (setting [3]) was less than 100 nM; in assay [2] (setting [4]), less than 10 nM.
For `CC(C)NC(=O)N1CCN(c2ccnn3cc(-c4ccc(C5(COC(F)F)CCN(C(C)C)CC5)cc4)cc23)CC1` [Compound 887] the same measures were less than 100 nM and less than 10 nM.
As to `CC(C)N1CC[C@H](OC(F)F)[C@@H](c2ccc(-c3cc4c(N5CCN(C(=O)OC6COC6)CC5)ccnn4c3)cc2)C1` [Compound 888], the results for the 50% inhibitory concentration (IC50) in assay [1] (setting [3]) and in assay [2] (setting [4]) were less than 100 nM and less than 10 nM, respectively.
With `CC(C)N1CC[C@@H](OC(F)F)[C@H](c2ccc(-c3cc4c(N5CCN(C(=O)OC6COC6)CC5)ccnn4c3)cc2)C1` [Compound 889], the half-inhibitory concentration (IC50) in assay [1] (setting [3]) is less than 100 nM; in assay [2] (setting [4]), less than 10 nM.
For `CCOC1(c2ccc(-c3cc4c(N5CCN(C(=O)[C@H]6C[C@H](C#N)C6)CC5)ccnn4c3)nc2)CCN(C2COC2)CC1` [Compound 890] the same measures were less than 100 nM and less than 10 nM.
For `CC(C)N1CCC(COC(F)F)(c2ccc(-c3cc4c(N5CCN(C(=O)OC6COC6)CC5)ccnn4c3)cc2)CC1` [Compound 891] the same measures were less than 100 nM and less than 10 nM.
For `COC1(c2ccc(-c3cc4c(N5CCN(C(=O)NC(C)C)CC5)ccnn4c3)cc2)CCN([C@@H](C)COC(F)F)CC1` [Compound 892] the same measures were less than 100 nM and less than 10 nM.
With `COC1(c2ccc(-c3cc4c(N5CCN(C(=O)NC(C)C)CC5)ccnn4c3)cc2)CCN([C@H](C)COC(F)F)CC1` [Compound 893], the values for the half-maximal inhibitory concentration (IC50) in assay [1] (setting [3]) and in assay [2] (setting [4]) were less than 100 nM and less than 10 nM, respectively.
For `COC1(c2ccc(-c3cc4c(N5CCN(C(=O)NC(C)C)CC5)ccnn4c3)nc2)CCN([C@@H](C)COC(F)F)CC1` [Compound 894] the same measures were less than 100 nM and less than 10 nM.
For the compound `CCOC1(c2ccc(-c3cc4c(N5CCN(C(=O)OC6CN(C(C)=O)C6)CC5)ccnn4c3)nc2)CCN(C(C)C)CC1` [Compound 895], the 50% inhibitory concentration (IC50) is 100 to 500 nM in assay [1] (setting [3]) and less than 10 nM in assay [2] (setting [4]).

The values are drawn from US10233186B2, “Inhibitors of activin receptor-like kinase” (BLUEPRINT MEDICINES CORPORATION, priority 2016, dated 2019).
